Laboratory results: PMC10096453, “One-Pot Synthesis and Evaluation of Antioxidative Stress and Anticancer Properties of an Active Chromone Derivative” (Molecules, 2023)
Like-named read-outs stand apart in the source and are kept apart here.

What was measured:
HeLa cells = assay: Cell cycle analysis by flow cytometry; type: cell-based; conditions: 24 h, 2f, 2j, quercetin at IC50, paclitaxel 5 μM
Experimental: The paclitaxel (5 μM) was performed as the positive control.
The treatment of HeLa cells and compounds was the same as in the apoptosis protocol. The cells were harvested for 200 μL and centrifuged at 600× g for 5 min and washed with PBS. The mixing cells were slowly added 200 μL of ice-cold 70% ethanol and incubated for at least 3 h at −20 °C. Cells were centrifuged and washed with PBS. Finally, cells were stained with 200 μL of Muse® cell cycle reagent and incubated at room temperature for 30 min in the dark. The cell was analyzed by flow cytometry (Guava Muse Cell Analyzer, Luminex, Austin, TX, USA).

[1] = ABTS radical cation scavenging assay; type: biochemical
Description: (§1) Three in vitro antioxidant assays (DPPH, FRAP, and ABTS) were utilized to evaluate the antioxidant property of the synthesized compounds. The DPPH (α, α-diphenyl-β-picrylhydrazyl) assay is the well-known approach to determine antioxidant activity using a stable free radical DPPH, measure the absorbance change, and calculate the absorbance change in the percentage of scavenging activity. […] For example, the ferric-tripyridyltriazine (Fe^3+-TPTZ, colorless) complex is reduced to ferrous tripyridyltriazine (Fe^2+-TPTZ) at low pH and introduces a blue color with maximum absorption at 593 nm. The change in absorbance is related to antioxidant activity. However, a significant limitation of these in vitro tests is the non-physiological measurement conditions (no enzymatic condition and no transition metal ion chelating activity); therefore, the results obtained may not reflect the antioxidant activity of the source material under the biological conditions that exist in humans and animals. The ABTS assay involves a more drastic radical that is chemically produced. The use of ABTS for antioxidant activity determination of hydrophilic and lipophilic pure compounds has attracted interest due to its solubility in organic and aqueous media and stability in a wide pH range [31].
The ABTS assay was prepared by reaction of 5 mL of a 7 mM aqueous ABTS (2,2′-azino-bis (3-ethylbenzthiazoline-6-sulphonic acid) solution and 2.45 mM potassium persulfate solution (K2S2O8). After preparation and storage in the dark for 16 h, the radical cation solution was further diluted in ethanol to absorb about 0.7 at 734 nm. Trolox and test sample solutions were prepared in stock solution with DMSO and diluted with ethanol. A solution of 100 μL of the sample was mixed with 100 μL of the ABTS reagent in a 96-well plate. The mixture was shaken in a dark place for 10 min and incubated at 37 °C for 20 min, and the absorbance was determined at 734 nm. Absorbance determinations were recorded immediately and not more than 1 h after adding the reagent. The solution without the sample was used as a blank. All the determinations were made in triplicate. The sample’s scavenging percentage was calculated from this equation: scavenging percentage = (Absorbance control − Absorbance sample) × 100/Absorbance control. EC50 values were calculated from the relationship curve of %scavenging versus sample concentration.

[2] = MTT cytotoxicity assay, HACAT cells; type: cell-based; conditions: human; for viability at 24 h, 100 µM: read-out: % Viability ± SD (at 100 μM) HACAT 24 h; for viability at 48 h, 100 µM: read-out: % Viability ± SD (at 100 μM) HACAT 48 h
Experimental: (§2) HEK293, HACAT, and HeLa cells were grown in modified Eagles’ minimum essential medium (EMEM, Gibco) with 10% fetal bovine serum (FBS, Gibco), 1% of 100 U/mL streptomycin and 100 U/mL penicillin (Gibco). Cells were seeded in culture flasks and maintained in an incubator at 37 °C in a humidified atmosphere with 5% CO2. After reaching 80–90% of confluence, cells were detached by incubation with 0.25% trypsin-0.2% EDTA (Gibco) for 5 min and plated for experiments.
(§3) This study examined cell cultures of HEK293, HACAT, and HeLa cells. The cytotoxicity of the test samples was carried out by the MTT (3-(4,5-dimethylthiazol-2-yl)-2,5-diphenyltetrazolium bromide) assay. The cells were seeded in 96-well microliter plates (2.0 × 10^4 cells/well). Stock solutions of the test compounds were prepared in DMSO. After 24 h, cells were treated with different concentrations of samples and diluted with media to obtain the final desired concentration. The treated cells were then incubated at 37 °C and 5% CO2 for 24 and 48 h. After incubation, the medium was replaced with 0.05% w/v of MTT solution in PBS and further incubated for 3 h. The solution was then discarded and DMSO was added to dissolve the formed formazan crystals. Each well’s absorbance (A) was measured at 570 nm using a microplate reader (FLUOstar Omega^TM, BMG Labtech, Ortenberg, Germany). All experiments were carried out in triplicate and repeated for at least three experiments.

[3] = DPPH radical scavenging assay; type: biochemical; design: DPPH517nm % SA ± SD: dose or concentration left out as unconfirmed; conditions: for DPPH517nm % SA ± SD: mean of three measurements; for EC50: read-out: DPPH517nm EC50 ± SD
Description: as §1
The DPPH method was followed and modified from a previous study. Trolox was used as a reference. The DPPH stock solution at a concentration of 0.625 mM was prepared in 50% ethanol and kept at 4 °C in the dark. On the day of the experiment, 0.208 mM fresh DPPH working solution was freshly prepared by further diluting with 50% ethanol. […] Each reaction was carried out in a 96-well plate, and 100 μL of test preparation and DPPH solution were added. The 96-well plate was then shaken well for 10 min and kept in the dark at room temperature for 20 min, and the absorbance was recorded at 515–517 nm. According to the method described, delocalization also results in a deep violet color and is quantified as a percentage of scavenging activity. % scavenging activity (SA) = 100 × (Asample − Ablank)/(Acontrol − Ablank)(1) where Acontrol and Asample are the absorbances of the test DPPH without and with a sample, respectively. Ablank is the absorbance of the solvent used. The EC50 values were calculated from the relationship curve of %SA versus sample concentration. The experiment was carried out at least in triplicate.

[4] = FRAP (ferric reducing antioxidant power) assay; type: biochemical; conditions: Trolox equivalent
Description: as §1
The FRAP assay is a method for assessing antioxidant power. Briefly, the FRAP reagent was prepared from acetate buffer pH 3.6, 10 mM TPTZ solution in 40 mM HCl and 20 mM FeCl3.6 H2O in relative proportions of 10:1:1, v/v, respectively. The FRAP reagent was freshly prepared daily. A solution of 5 μL of the sample (3–300 μM, approx.) was mixed with 180 μL of the FRAP reagent in a 96-well plate. The mixture was shaken in the dark for 10 min and incubated at 37 °C for 20 min, and the absorbance was determined at 593 nm. The solution without the sample was used as a blank. All determinations were made in triplicate. Trolox was used as a standard antioxidant and plot the calibration curve between absorbance and concentration. Quercetin was applied as the reference compound. The FRAP values were calculated by comparing the absorbance change in the test sample and represented in μM of Trolox equivalent per μM of sample.

[5] = MTT cytotoxicity assay, HEK293 cells; type: cell-based; conditions: human, HEK293 cells, 100 μM; for viability at 24 h, 100 µM: read-out: % Viability ± SD (at 100 μM) HEK293 24 h; for viability at 48 h, 100 µM: read-out: % Viability ± SD (at 100 μM) HEK293 48 h
Experimental: as §2, §3

HeLa cell = assay: MTT anticancer activity assay, HeLa cells; type: cell-based
Experimental: as §2, §3

[6] = Homo sapiens, 24 h, read-out: % Viability ± SD (at 100 μM) HeLa 24 h
[7] = Homo sapiens, 48 h, read-out: % Viability ± SD (at 100 μM) HeLa 48 h

Row | SMILES | EC50 [3] [µM] | melting point [°C] | IC50 (HeLa cell; Homo sapiens, HeLa, 24 h) [µM] | EC50 ([1]; read-out: ABTS734nm EC50 ± SD) [µM] | IC50 (HeLa cell; 24 h) [µM] | Cell cycle phase arrest (HeLa cells) | Cell population in G0/G1 phase (HeLa cells) [%] | Cell population in G2/M phase (HeLa cells) [%] | Cell population in S phase (HeLa cells) [%] | ABTS734nm % Scavenging at 500 µM [1] [%] | viability at 24 h, 100 µM [2] [%] | viability at 48 h, 100 µM [2] [%] | DPPH517nm % SA ± SD [3] [%] | FRAP593nm Value ± SD (TE) [4] | viability at 24 h, 100 µM [5] [%] | viability at 48 h, 100 µM [5] [%] | Anticancer activity on cervical cancer cells (HeLa cell; HeLa, 24 h) | viability at 100 µM (HeLa cell; [6]) [%] | viability at 100 µM (HeLa cell; [7]) [%]
1 | CC(=O)O[C@H]1C(=O)[C@@]2(C)[C@H]([C@H](OC(=O)c3ccccc3)[C@]3(O)C[C@H](OC(=O)[C@H](O)[C@@H](NC(=O)c4ccccc4)c4ccccc4)C(C)=C1C3(C)C)[C@]1(OC(C)=O)CO[C@@H]1C[C@@H]2O [Paclitaxel, paclitaxel, reference compound] | – | – | – | – | – | potent phase arrest of G2/M | 5.89 ± 0.18 | 89.12 ± 1.14 | 4.99 ± 0.96 | – | – | – | – | – | – | – | – | – | –
2 | COc1ccc(C(=O)c2c(-c3ccc(OC)cc3)oc3cc(O)ccc3c2=O)cc1 [2h, 7-hydroxy-3-(4-methoxybenzoyl)-2-(4-methoxyphenyl)-4H-chromen-4-one] | – | 300 to 301 | – | – | – | – | – | – | – | 6.55 ± 4.19 | 75.2 ± 7.39 | 71.8 ± 3.27 | 12.57 ± 6.18 | 0.06 ± 0.024 µM Trolox/1 µM of Synthesized Compounds | 77.2 ± 1.93 | 73.1 ± 0.79 | – | 84.9 ± 2.55 | 64.2 ± 0.76
3 | CC(=O)c1ccc(O)cc1OC(=O)c1ccco1 [compound 4, 2-Acetyl-5-hydroxyphenyl furan-2-carboxylate] | – | 122 to 124 | – | – | – | – | – | – | – | 14.51 ± 1.94 | 85.7 ± 5.6 | 72.2 ± 1.81 | 0.99 ± 0.71 | 0.00 ± 0.001 µM Trolox/1 µM of Synthesized Compounds | 97.99 ± 0.4 | 108 ± 2.84 | – | 86.1 ± 3.24 | 91.07 ± 0.65
4 | COc1cccc(C(=O)c2c(-c3cccc(OC)c3)oc3cc(O)ccc3c2=O)c1 [2g, 7-Hydroxy-3-(3-methoxybenzoyl)-2-(3-methoxyphenyl)-4H-chromen-4-one] | – | 253 to 254 | 172.7 ± 1.66 | – | – | – | – | – | – | 11.52 ± 3.56 | 81.5 ± 5.17 | 78.4 ± 5.44 | 18.32 ± 0.40 | 0.02 ± 0.008 µM Trolox/1 µM of Synthesized Compounds | 79.1 ± 0.9 | 76.7 ± 1.16 | contained anticancer activity | – | 46.3 ± 1.14

Continued, in another order:

Row | EC50 [3] [µM] | melting point [°C] | IC50 (HeLa cell; Homo sapiens, HeLa, 24 h) [µM] | EC50 ([1]; read-out: ABTS734nm EC50 ± SD) [µM] | IC50 (HeLa cell; 24 h) [µM] | SMILES | Cell cycle phase arrest (HeLa cells) | Cell population in G0/G1 phase (HeLa cells) [%] | Cell population in G2/M phase (HeLa cells) [%] | Cell population in S phase (HeLa cells) [%] | ABTS734nm % Scavenging at 500 µM [1] [%] | viability at 24 h, 100 µM [2] [%] | viability at 48 h, 100 µM [2] [%] | DPPH517nm % SA ± SD [3] [%] | FRAP593nm Value ± SD (TE) [4] | viability at 24 h, 100 µM [5] [%] | viability at 48 h, 100 µM [5] [%] | Anticancer activity on cervical cancer cells (HeLa cell; HeLa, 24 h) | viability at 100 µM (HeLa cell; [6]) [%] | viability at 100 µM (HeLa cell; [7]) [%]
5 | > 750 | 270 to 271 | 166.9 ± 0.49 | – | – | O=C(c1ccccc1)c1c(-c2ccccc2)oc2cc(O)ccc2c1=O [2d, 3-Benzoyl-7-hydroxy-2-phenyl-4H-chromen-4-one] | – | – | – | – | 27.59 ± 2.46 | 77.8 ± 6.93 | 72.5 ± 3.41 | 15.85 ± 4.61 | 0.02 ± 0.003 µM Trolox/1 µM of Synthesized Compounds | 88.7 ± 1.33 | 87.8 ± 1.8 | contained anticancer activity | 85.17 ± 0.79 | 42.36 ± 0.09
6 | > 750 | 196 to 197 | 108 ± 4.04 | 158 ± 10.9 | – | O=C(c1ccccc1)c1c(-c2ccccc2)oc2cc(O)cc(O)c2c1=O [2e, 3-Benzoyl-5,7-dihydroxy-2-phenyl-4H-chromen-4-one] | – | – | – | – | 80.67 ± 0.30 | 79.7 ± 3.26 | 69.1 ± 3.07 | 46.30 ± 3.61 | 0.02 ± 0.002 µM Trolox/1 µM of Synthesized Compounds | 99.7 ± 2.41 | 93.9 ± 5.34 | contained anticancer activity | 76 ± 1.52 | 26.5 ± 1.13
7 | – | 201 to 203.5 | 95.7 | – | 95.7 ± 1.16 | O=C(c1ccccc1)c1c(-c2ccccc2)oc2ccc(O)cc2c1=O [2b, 3-Benzoyl-6-hydroxy-2-phenyl-4H-chromen-4-one] | – | – | – | – | 35.99 ± 1.32 | 75.7 ± 3.38 | 74.9 ± 1.55 | 5.32 ± 2.43 | 0.02 ± 0.003 µM Trolox/1 µM of Synthesized Compounds | 105 ± 2.7 | 72.4 ± 8.55 | contained anticancer activity | 40.9 ± 0.41 | 24.8 ± 1.05
8 | – | 194 to 196 | – | – | – | COc1ccc2oc(-c3ccccc3)c(C(=O)c3ccccc3)c(=O)c2c1 [2c, 3-Benzoyl-6-methoxy-2-phenyl-4H-chromen-4-one] | – | – | – | – | 13.16 ± 0.78 | 62.3 ± 3.04 | 60.4 ± 0.73 | 5.88 ± 2.65 | 0.07 ± 0.028 µM Trolox/1 µM of Synthesized Compounds | 72.5 ± 6.46 | 74 ± 1.32 | – | 60.67 ± 0.57 | 82.12 ± 0.11
